This passage reports IC50 results from US20140171427A1, “Heterocyclic chromene-spirocyclic piperidine amides as modulators of ion channels” (VERTEX PHARMACEUTICALS INCORPORATED, priority 2010, published 2014).

Some results are limits rather than exact numbers.

The target in this assay is human NaV subtype. The assay is described as follows: E-VIPR optical membrane potential assay with electrical stimulation. It counts as cell-based. To be noted: active against one or more sodium channels; assay and NaV subtype not specified for Table 3; read-out: Binned Activity Data (IC50). The text has this:
E-VIPR Optical Membrane Potential Assay Method with Electrical Stimulation
Sodium channels are voltage-dependent proteins that can be activated by inducing membrane voltage changes by applying electric fields. The electrical stimulation instrument and methods of use are described in Ion Channel Assay Methods PCT/US01/21652, herein incorporated by reference and are referred to as E-VIPR. The instrument comprises a microtiter plate handler, an optical system for exciting the coumarin dye while simultaneously recording the coumarin and oxonol emissions, a waveform generator, a current- or voltage-controlled amplifier, and a device for inserting electrodes in well. Under integrated computer control, this instrument passes user-programmed electrical stimulus protocols to cells within the wells of the microtiter plate.
24 hours before the assay on E-VIPR, HEK cells expressing human NaV subtype, like NaV 1.7, are seeded in 384-well poly-lysine coated plates at 15,000-20,000 cells per well. Other subtypes are performed in an analogous mode in a cell line expressing the NaV of interest. HEK cells are grown in media (exact composition is specific to each cell type and NaV subtype) supplemented with 10% FBS (Fetal Bovine Serum, qualified; GibcoBRL #16140-071) and 1% Pen-Strep (Penicillin-Streptomycin; GibcoBRL #15140-122). Cells are grown in vented cap flasks, in 90% humidity and 10% CO2, to 100% confluence. They are usually split by trypsinization 1:10 or 1:20, depending on scheduling needs, and grown for 2-3 days before the next split.
100 mg/mL Pluronic F-127 (Sigma #P2443), in dry DMSO
Compound Plates: 384-well round bottom plate, e.g. Corning 384-well Polypropylene Round Bottom #3656
Cell Plates: 384-well tissue culture treated plate, e.g. Greiner #781091-1B
Bath1 buffer. Glucose 10 mM (1.8 g/L), Magnesium Chloride (Anhydrous), 1 mM (0.095 g/L), Calcium Chloride, 2 mM (0.222 g/L), HEPES 10 mM (2.38 g/L), Potassium Chloride, 4.5 mM (0.335 g/L), Sodium Chloride 160 mM (9.35 g/L).
Hexyl Dye Solution: Bath1 Buffer+0.5% β-cyclodextrin (make this prior to use, Sigma #C4767), 8 μM CC2-DMPE+DiSBAC6(3). To make the solution Add volume of 10% Pluronic F127 stock equal to volumes of CC2-DMPE+DiSBAC6(3). The order of preparation is first mix Pluronic and CC2-DMPE, then add DiSBAC6(3) while vortexing, then add Bath1+β-Cyclodextrin.
1) Pre-spot compounds (in neat DMSO) into compound plates. Vehicle control (neat DMSO), the positive control (20 mM DMSO stock tetracaine, 125 μM final in assay) and test compounds are added to each well at 160× desired final concentration in neat DMSO. Final compound plate volume will be 80 μL (80-fold intermediate dilution from 1 μL DMSO spot; 160-fold final dilution after transfer to cell plate). Final DMSO concentration for all wells in assay is 0.625%.
2) Prepare Hexyl Dye Solution.
3) Prepare cell plates. On the day of the assay, medium is aspirated and cells are washed three times with 100 μL of Bathl Solution, maintaining 25 μL residual volume in each well.
4) Dispense 25 μL per well of Hexyl Dye Solution into cell plates. Incubate for 20-35 minutes at room temp or ambient conditions.
5) Dispense 80 μL per well of Bathl into compound plates. Acid Yellow-17 (1 mM) is added and Potassium Chloride can be altered from 4.5 to 20 mM depending on the NaV subtype and assay sensitivity.
6) Wash cell plates three times with 100 μL per well of Bathl, leaving 25 μL of residual volume. Then transfer 25 uL per well from Compound Plates to Cell Plates. Incubate for 20-35 minutes at room temp/ambient condition
7) Read Plate on E-VIPR. Use the current-controlled amplifier to deliver stimulation wave pulses for typically 9 seconds and a scan rate of 400 Hz. A pre-stimulus recording is performed for 0.5 seconds to obtain the un-stimulated intensities baseline. The stimulatory waveform is applied for 9 seconds followed by 0.5 seconds of post-stimulation recording to examine the relaxation to the resting state. […]

Chain of human NaV subtype (Q15858 whole entry): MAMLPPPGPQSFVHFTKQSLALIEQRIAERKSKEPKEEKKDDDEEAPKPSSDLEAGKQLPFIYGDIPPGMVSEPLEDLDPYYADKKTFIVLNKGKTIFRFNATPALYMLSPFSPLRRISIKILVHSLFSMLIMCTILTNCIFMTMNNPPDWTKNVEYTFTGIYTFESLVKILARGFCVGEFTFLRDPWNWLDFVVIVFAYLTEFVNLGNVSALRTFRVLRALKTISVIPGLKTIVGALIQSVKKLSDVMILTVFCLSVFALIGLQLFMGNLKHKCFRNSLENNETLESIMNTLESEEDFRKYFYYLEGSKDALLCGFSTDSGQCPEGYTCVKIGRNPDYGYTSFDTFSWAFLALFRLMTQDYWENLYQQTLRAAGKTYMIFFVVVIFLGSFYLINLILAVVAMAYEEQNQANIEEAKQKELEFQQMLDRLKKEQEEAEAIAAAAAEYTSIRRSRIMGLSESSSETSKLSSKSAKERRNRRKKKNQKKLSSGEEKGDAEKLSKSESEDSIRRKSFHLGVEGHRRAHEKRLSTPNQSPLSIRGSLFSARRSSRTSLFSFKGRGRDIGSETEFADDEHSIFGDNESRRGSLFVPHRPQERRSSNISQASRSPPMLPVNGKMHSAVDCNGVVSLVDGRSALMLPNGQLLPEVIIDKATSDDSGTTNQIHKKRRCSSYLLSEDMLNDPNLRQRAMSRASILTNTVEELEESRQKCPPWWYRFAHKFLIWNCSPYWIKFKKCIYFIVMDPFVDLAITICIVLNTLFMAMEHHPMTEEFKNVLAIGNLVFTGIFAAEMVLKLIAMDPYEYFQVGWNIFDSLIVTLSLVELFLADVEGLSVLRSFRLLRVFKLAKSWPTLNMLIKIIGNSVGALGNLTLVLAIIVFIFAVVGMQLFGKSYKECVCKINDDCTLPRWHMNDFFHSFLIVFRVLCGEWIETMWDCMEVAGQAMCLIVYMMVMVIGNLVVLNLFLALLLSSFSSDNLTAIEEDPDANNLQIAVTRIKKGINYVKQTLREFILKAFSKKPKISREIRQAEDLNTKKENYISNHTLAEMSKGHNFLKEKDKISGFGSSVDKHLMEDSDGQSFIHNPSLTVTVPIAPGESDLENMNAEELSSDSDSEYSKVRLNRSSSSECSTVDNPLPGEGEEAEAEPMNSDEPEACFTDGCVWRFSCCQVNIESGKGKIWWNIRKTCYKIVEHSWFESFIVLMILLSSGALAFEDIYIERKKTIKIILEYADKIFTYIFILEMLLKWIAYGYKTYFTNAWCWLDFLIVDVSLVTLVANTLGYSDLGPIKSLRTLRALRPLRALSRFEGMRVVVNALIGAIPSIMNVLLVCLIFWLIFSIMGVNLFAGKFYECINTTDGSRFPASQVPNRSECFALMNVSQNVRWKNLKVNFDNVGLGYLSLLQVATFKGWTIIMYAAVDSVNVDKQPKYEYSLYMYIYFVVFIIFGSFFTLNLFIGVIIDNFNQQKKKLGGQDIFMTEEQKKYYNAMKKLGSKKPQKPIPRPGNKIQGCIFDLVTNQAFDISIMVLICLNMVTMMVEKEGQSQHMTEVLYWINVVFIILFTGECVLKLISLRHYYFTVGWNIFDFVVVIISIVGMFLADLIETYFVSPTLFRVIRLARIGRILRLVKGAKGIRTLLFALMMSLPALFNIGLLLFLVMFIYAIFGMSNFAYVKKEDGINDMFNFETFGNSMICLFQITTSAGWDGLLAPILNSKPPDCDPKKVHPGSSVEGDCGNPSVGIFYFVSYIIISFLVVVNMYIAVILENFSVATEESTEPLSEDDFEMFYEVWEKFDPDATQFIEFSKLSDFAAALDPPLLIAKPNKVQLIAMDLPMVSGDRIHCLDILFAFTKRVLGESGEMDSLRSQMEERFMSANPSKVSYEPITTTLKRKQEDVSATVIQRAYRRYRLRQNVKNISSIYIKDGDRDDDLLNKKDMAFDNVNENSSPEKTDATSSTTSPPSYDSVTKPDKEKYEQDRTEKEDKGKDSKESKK

As to `Cc1cc(C(=O)N2CCC3(CC2)Oc2ccccc2-n2c(C#N)ccc23)ccc1[C@@](C)(O)CO` [Compound 54], the IC50 was under 2000 nM.

For `COC(=O)C(C)(C)c1ccc(C(=O)N2CCC3(CC2)Oc2ccccc2-c2c3cnn2C)cc1OC` [Compound 403], the half-inhibitory concentration (IC50) is under 2000 nM.

Take `N#Cc1ccc2n1-c1ccccc1OC21CCN(C(=O)c2ccc(C(F)(F)F)cc2)CC1` [Compound 481]: the IC50 was over 5000 nM.

For the compound `COc1cc(C(=O)N2CCC3(CC2)Oc2cc(F)ccc2-n2cccc23)ccc1OC[C@H](O)CO` [Compound 606], the 50% inhibitory concentration (IC50) was under 2000 nM.

Regarding `C[C@](O)(CO)c1ccc(C(=O)N2CCC3(CC2)Oc2ccccc2-n2c(C(F)(F)F)ccc23)cc1` [Compound 640], the IC50 is under 2000 nM.

Regarding `COc1cc(C(=O)N2CCC3(CC2)Oc2ccccc2-n2c(C#N)ccc23)ccc1OC[C@@H](O)CO` [Compound 680], the IC50 was under 2000 nM.
